We go through 18 compounds from patent US12522601B2, “1,3,4-oxadiazole derivative compounds as histone deacetylase 6 inhibitor, and the pharmaceutical composition comprising the same” (CHONG KUN DANG PHARMACEUTICAL CORP., priority 2020, dated 2026).

The target of one assay is T1, human recombinant HDAC1 (Homo sapiens, UniProt Q13547).
T1 construct: purchased Enzo Life Sciences, Inc. BML-SE456
In words: In vitro HDAC enzyme activity inhibition assay, HDAC1 (HDAC Fluorimetric Drug Discovery Kit). The following applies: human recombinant HDAC1, Fluor de Lys-SIRT1 substrate 10 μM, 30° C. for 60 minutes. The class given is biochemical. An outline of the steps:
(§1)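 Fluorimetric deacetylase kit; 0.3 μg human recombinant enzyme with 10 μM Fluor de Lys-SIRT1 substrate, 60 min at 30° C, then developer 30 min. Fluorescence read at Ex 360/Em 460; IC50 from 5-fold compound dilutions. HDAC1 and HDAC6 run by the same protocol.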

For the next assay, the target named is T2, human recombinant HDAC6 (Homo sapiens, UniProt Q9UBN7).
T2 construct: purchased Calbiochem Inc. 382180
T2 sequence (Q9UBN7 1-1215): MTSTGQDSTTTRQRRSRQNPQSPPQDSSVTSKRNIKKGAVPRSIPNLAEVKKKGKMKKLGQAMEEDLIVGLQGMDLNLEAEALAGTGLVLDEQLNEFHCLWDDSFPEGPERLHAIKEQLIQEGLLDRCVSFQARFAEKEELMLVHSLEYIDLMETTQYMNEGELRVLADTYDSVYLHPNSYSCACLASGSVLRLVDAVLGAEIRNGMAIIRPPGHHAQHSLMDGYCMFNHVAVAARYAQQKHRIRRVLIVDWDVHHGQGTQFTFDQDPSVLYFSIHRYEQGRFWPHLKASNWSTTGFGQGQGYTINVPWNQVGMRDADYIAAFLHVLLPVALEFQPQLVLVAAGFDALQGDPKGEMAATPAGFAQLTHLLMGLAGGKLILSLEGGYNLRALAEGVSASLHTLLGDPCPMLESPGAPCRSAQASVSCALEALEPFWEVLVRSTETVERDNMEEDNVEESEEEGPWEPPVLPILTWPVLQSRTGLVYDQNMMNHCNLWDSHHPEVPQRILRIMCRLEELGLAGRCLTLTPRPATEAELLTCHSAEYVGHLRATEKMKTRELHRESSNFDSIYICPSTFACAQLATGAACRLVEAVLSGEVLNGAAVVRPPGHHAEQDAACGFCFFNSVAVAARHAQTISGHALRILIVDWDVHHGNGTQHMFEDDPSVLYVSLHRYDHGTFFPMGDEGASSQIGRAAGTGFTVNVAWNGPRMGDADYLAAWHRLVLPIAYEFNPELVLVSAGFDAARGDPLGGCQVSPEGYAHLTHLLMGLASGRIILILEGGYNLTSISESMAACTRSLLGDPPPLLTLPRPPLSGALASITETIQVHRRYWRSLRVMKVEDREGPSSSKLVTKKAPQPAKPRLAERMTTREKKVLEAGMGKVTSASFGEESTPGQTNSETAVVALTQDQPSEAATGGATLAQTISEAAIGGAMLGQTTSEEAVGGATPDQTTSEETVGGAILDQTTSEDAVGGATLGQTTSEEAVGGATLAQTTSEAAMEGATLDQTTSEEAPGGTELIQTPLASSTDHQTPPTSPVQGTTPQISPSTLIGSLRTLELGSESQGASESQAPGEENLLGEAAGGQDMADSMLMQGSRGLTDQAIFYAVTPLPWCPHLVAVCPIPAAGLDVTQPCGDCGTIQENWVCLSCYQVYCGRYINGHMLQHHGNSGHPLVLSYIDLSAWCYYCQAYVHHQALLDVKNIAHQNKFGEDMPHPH
In words: In vitro HDAC enzyme activity inhibition assay, HDAC6 (HDAC Fluorimetric Drug Discovery Kit). The class given is biochemical. The following applies: for HDAC6 Selectivity (fold): HDAC6 versus HDAC1; for IC50: human recombinant HDAC6, same protocol as the HDAC1 test. The procedure, abridged:
as §1

T1 sequence (Q13547 whole entry): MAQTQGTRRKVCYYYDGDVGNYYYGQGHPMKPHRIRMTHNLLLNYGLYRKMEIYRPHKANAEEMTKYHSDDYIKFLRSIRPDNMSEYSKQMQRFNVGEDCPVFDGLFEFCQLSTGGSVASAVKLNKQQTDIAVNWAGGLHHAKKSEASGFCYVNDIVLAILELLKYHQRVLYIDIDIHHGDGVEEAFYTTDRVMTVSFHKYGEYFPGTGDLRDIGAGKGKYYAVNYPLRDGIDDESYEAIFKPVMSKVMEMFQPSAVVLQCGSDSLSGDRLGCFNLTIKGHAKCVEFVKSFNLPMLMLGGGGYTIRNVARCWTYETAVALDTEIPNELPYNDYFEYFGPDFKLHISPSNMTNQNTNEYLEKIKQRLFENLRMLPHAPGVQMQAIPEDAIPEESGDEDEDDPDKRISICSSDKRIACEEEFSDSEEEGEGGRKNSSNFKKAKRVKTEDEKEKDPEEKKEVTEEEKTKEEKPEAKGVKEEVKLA

For the compound `COC(=O)N1CC(C(=O)N(Cc2cn3ccc(-c4nnc(C(F)F)o4)cc3n2)c2cccc(F)c2)C1` [Compound 4204, methyl 3-(((7-(5-(difluoromethyl)-1,3,4-oxadiazol-2-yl)imidazo[1,2-a]pyridin-2-yl)methyl)(3-fluorophenyl)carbamoyl) azetidine-1-carboxylate], the results for the IC50 on human recombinant HDAC1 and on human recombinant HDAC6 were more than 50000 nM and 187 nM, respectively. Moreover, on human recombinant HDAC6, the “HDAC6 Selectivity (fold)” value worked out at 268 fold.

Regarding `O=C(CO)N1CCN(C(=O)N(Cc2cn3ccc(-c4nnc(C(F)F)o4)cc3n2)c2cccc(F)c2)CC1` [Compound 4094, N-((7-(5-(difluoromethyl)-1,3,4-oxadiazol-2-yl)imidazo[1,2-a]pyridin-2-yl)methyl)-N-(3-fluorophenyl)-4-(2-hydroxyacetyl)piperazine-1-carboxamide], on human recombinant HDAC1, the IC50 (usually the concentration that inhibits the measured activity by half) is more than 50000 nM. Further, on human recombinant HDAC6, the “HDAC6 Selectivity (fold)” value was found to be 215 fold and the IC50 is 232 nM.

As to `CN1CC(C(=O)N(Cc2cn3ccc(-c4nnc(C(F)F)o4)cc3n2)c2cccc(F)c2)C1` [Compound 4188, N-((7-(5-(difluoromethyl)-1,3,4-oxadiazol-2-yl)imidazo[1,2-a]pyridin-2-yl)methyl)-N-(3-fluorophenyl)-1-methylazetidine-3-carboxamide], the IC50 at human recombinant HDAC1 was more than 50000 nM; on human recombinant HDAC6, 373 nM. In addition, the “HDAC6 Selectivity (fold)” value at human recombinant HDAC6 was found to be 134 fold.

On to `FC(F)c1nnc(-c2ccn3cc(CNc4cccnc4)nc3c2)o1` [Compound 3675, N-((7-(5-(difluoromethyl)-1,3,4-oxadiazol-2-yl)imidazo[1,2-a]pyridin-2-yl)methyl)pyridin-3-amine], for which, on human recombinant HDAC1, the IC50 is more than 50000 nM. Besides, on human recombinant HDAC6, the “HDAC6 Selectivity (fold)” value came to 401 fold and the IC50 turned out to be 125 nM.

Turning to `O=C(C1CN(C2COC2)C1)N(Cc1cn2ccc(-c3nnc(C(F)F)o3)cc2n1)c1cccc(F)c1` [Compound 4193, N-((7-(5-(difluoromethyl)-1,3,4-oxadiazol-2-yl)imidazo[1,2-a]pyridin-2-yl)methyl)-N-(3-fluorophenyl)-1-(oxetan-3-yl) azetidine-3-carboxamide], the IC50 at human recombinant HDAC1 was more than 50000 nM; on human recombinant HDAC6, 139 nM. Besides, the “HDAC6 Selectivity (fold)” value on human recombinant HDAC6 came to 361 fold.

On to `CC(=O)N1CCN(C(=O)N(Cc2cn3ccc(-c4nnc(C(F)F)o4)cc3n2)c2ccccc2)CC1` [Compound 4040, 4-acetyl-N-((7-(5-(difluoromethyl)-1,3,4-oxadiazol-2-yl)imidazo[1,2-a]pyridin-2-yl)methyl)-N-phenylpiperazine-1-carboxamide], for which the IC50 at human recombinant HDAC1 was more than 50000 nM; at human recombinant HDAC6, 119 nM. In addition, the “HDAC6 Selectivity (fold)” value at human recombinant HDAC6 is recorded as 421 fold.

On to `O=C(C1COC1)N1CCC(C(=O)N(Cc2cn3ccc(-c4nnc(C(F)F)o4)cc3n2)c2cccc(F)c2)CC1` [Compound 4151, N-((7-(5-(difluoromethyl)-1,3,4-oxadiazol-2-yl)imidazo[1,2-a]pyridin-2-yl)methyl)-N-(3-fluorophenyl)-1-(oxetane-3-carbonyl)piperidine-4-carboxamide], for which the IC50 on human recombinant HDAC1 is more than 50000 nM. Also, on human recombinant HDAC6, the “HDAC6 Selectivity (fold)” value is 245 fold and the IC50 is 204 nM.

Consider `CC(CO)N1CCN(C(=O)N(Cc2cn3ccc(-c4nnc(C(F)F)o4)cc3n2)c2cccc(F)c2)CC1` (stereo not drawn) [Compound 4086, N-((7-(5-(difluoromethyl)-1,3,4-oxadiazol-2-yl)imidazo[1,2-a]pyridin-2-yl)methyl)-N-(3-fluorophenyl)-4-(1-hydroxypropan-2-yl)piperazine-1-carboxamide], for which the figures for the IC50 on human recombinant HDAC1 and at human recombinant HDAC6 were more than 50000 nM and 201 nM, respectively. Further, the “HDAC6 Selectivity (fold)” value at human recombinant HDAC6 is recorded as 249 fold.

For `CN1CC2(C1)CN(C(=O)N(Cc1cn3ccc(-c4nnc(C(F)F)o4)cc3n1)c1ccccc1)C2` [Compound 4625, N-((7-(5-(difluoromethyl)-1,3,4-oxadiazol-2-yl)imidazo[1,2-a]pyridin-2-yl)methyl)-6-methyl-N-phenyl-2,6-diazaspiro[3.3]heptan-2-carboxamide], the IC50 at human recombinant HDAC1 was more than 50000 nM. Further, on human recombinant HDAC6, the “HDAC6 Selectivity (fold)” value was 510 fold and the IC50 was determined as 98 nM.

For `CN1CCN(C(=O)N(Cc2cn3ccc(-c4nnc(C(F)F)o4)cc3n2)c2cccc(F)c2)CC1` [Compound 4083, N-((7-(5-(difluoromethyl)-1,3,4-oxadiazol-2-yl)imidazo[1,2-a]pyridin-2-yl)methyl)-N-(3-fluorophenyl)-4-methylpiperazine-1-carboxamide], the IC50 at human recombinant HDAC1 was more than 50000 nM. Also, at human recombinant HDAC6, the “HDAC6 Selectivity (fold)” value is on record as 108 fold and the IC50 was 465 nM.

As for `O=C(N1CCN(C2CCOCC2)CC1)N(Cc1cn2ccc(-c3nnc(C(F)F)o3)cc2n1)c1cccc(F)c1` [Compound 4090, N-((7-(5-(difluoromethyl)-1,3,4-oxadiazol-2-yl)imidazo[1,2-a]pyridin-2-yl)methyl)-N-(3-fluorophenyl)-4-(tetrahydro-2H-pyran-4-yl)piperazine-1-carboxamide], the IC50 at human recombinant HDAC1 was more than 50000 nM. In addition, on human recombinant HDAC6, the “HDAC6 Selectivity (fold)” value was found to be 216 fold and the IC50 came out at 232 nM.

`O=C(N1CCN(C2COC2)CC1)N(Cc1cn2ccc(-c3nnc(C(F)F)o3)cc2n1)c1ccccc1` [Compound 3785]: at human recombinant HDAC1, the IC50 is more than 50000 nM. Besides, on human recombinant HDAC6, the “HDAC6 Selectivity (fold)” value is 437 fold and the IC50 was 114 nM.

For `FC(F)c1nnc(-c2ccn3cc(Cc4ccc5c(c4)OCO5)nc3c2)o1` [Compound 3596, 2-(2-(benzo[d][1,3]dioxol-5-ylmethyl)imidazo[1,2-a]pyridin-7-yl)-5-(difluoromethyl)-1,3,4-oxadiazole], on human recombinant HDAC1, the IC50 was more than 50000 nM. Besides, on human recombinant HDAC6, the “HDAC6 Selectivity (fold)” value came out at 160 fold and the IC50 worked out at 313 nM.

Turning to `CS(=O)(=O)N1CC(C(=O)N(Cc2cn3ccc(-c4nnc(C(F)F)o4)cc3n2)c2ccccc2)C1` [Compound 4173, N-((7-(5-(difluoromethyl)-1,3,4-oxadiazol-2-yl)imidazo[1,2-a]pyridin-2-yl)methyl)-1-(methylsulfonyl)-N-phenylazetidine-3-carboxamide], the IC50 at human recombinant HDAC1 is more than 50000 nM; at human recombinant HDAC6, 312 nM. Moreover, at human recombinant HDAC6, the “HDAC6 Selectivity (fold)” value came out at 160 fold.

For `CC(C)N1CC(C(=O)N(Cc2cn3ccc(-c4nnc(C(F)F)o4)cc3n2)c2ccccc2)C1` [Compound 4160, N-((7-(5-(difluoromethyl)-1,3,4-oxadiazol-2-yl)imidazo[1,2-a]pyridin-2-yl)methyl)-1-isopropyl-N-phenylazetidine-3-carboxamide], at human recombinant HDAC1, the IC50 is more than 50000 nM. At human recombinant HDAC6, the “HDAC6 Selectivity (fold)” value amounted to 247 fold and the IC50 was 202 nM.

For the compound `O=C(C1CCN(c2ccccn2)CC1)N(Cc1cn2ccc(-c3nnc(C(F)F)o3)cc2n1)c1ccccc1` [Compound 4131, N-((7-(5-(difluoromethyl)-1,3,4-oxadiazol-2-yl)imidazo[1,2-a]pyridin-2-yl)methyl)-N-phenyl-1-(pyridin-2-yl)piperidine-4-carboxamide], the IC50 at human recombinant HDAC1 is more than 50000 nM. In addition, at human recombinant HDAC6, the “HDAC6 Selectivity (fold)” value came to 91 fold and the IC50 was 547 nM.

Consider `CC(CO)N1CC(C(=O)N(Cc2cn3ccc(-c4nnc(C(F)F)o4)cc3n2)c2ccccc2)C1` (stereo not drawn) [Compound 4161, N-((7-(5-(difluoromethyl)-1,3,4-oxadiazol-2-yl)imidazo[1,2-a]pyridin-2-yl)methyl)-1-(1-hydroxypropan-2-yl)-N-phenylazetidine-3-carboxamide], for which the IC50 was more than 50000 nM on human recombinant HDAC1 and 223 nM on human recombinant HDAC6. On human recombinant HDAC6, the “HDAC6 Selectivity (fold)” value was found to be 224 fold.

Take `O=C(N1CCN(C2CCCCC2)CC1)N(Cc1cn2ccc(-c3nnc(C(F)F)o3)cc2n1)c1ccccc1` [Compound 4037, 4-cyclohexyl-N-((7-(5-(difluoromethyl)-1,3,4-oxadiazol-2-yl)imidazo[1,2-a]pyridin-2-yl)methyl)-N-phenylpiperazine-1-carboxamide]: the IC50 on human recombinant HDAC1 is more than 50000 nM. Further, on human recombinant HDAC6, the “HDAC6 Selectivity (fold)” value was 404 fold and the IC50 turned out to be 124 nM.
